Results reported in patent publication US20200024347A1, “OR10H1 ANTIGEN BINDING PROTEINS AND USES THEREOF” (iOmx Therapeutics AG, priority 2016, published 2020).

Key:
Assay type in all cases: cell-based, human
OR10H1 mRNA = assay: RT-PCR of OR10H1 mRNA after siRNA transfection; details: M579-A2 cells, 72 h after transfection
Experimental: SMART pool siRNA against OR10H1 (GE Dharmacon) were tested (by RT-PCR) for their activity in downregulating OR10H1 mRNA in M579 (melanoma) cells. […] Details of the respective siRNAs are set out in Table E1.

M579-A2-luc cells [1] = system: M579-A2-luc cells
M579-A2-luc cells [2] = assay: Luc-CTL cytotoxicity assay, TIL412-mediated killing of M579-A2-luc
Text: It was surprising to find that all siRNAs show an impact on TIL412-mediated killing of M579-A2-luc at 5:1 Effector to Target cell (E:T) ratio (FIG. 1B). Transfection of M579-A2-luc cells with OR10H1 siRNA 1 increased HLA-matched patient-derived tumor-infiltrating lymphocyte (TIL, clone 412)-mediated killing to 70% (30% remaining melanoma cells compared to a scrambled negative control siRNA; p=<0.0001). This increase in TIL-mediated lysis is stronger than for PD-L1 positive control knock-down (39% remaining cells).
(§1) The effects of siRNA knock-down on TIL-mediated killing and lysis in a chromium release assay were investigated as described in Khandelwal et al, 2015 (EMBO Mol Med 7:450-63). Tumor-infiltrating lymphocytes 412 and 209 microcultures were expanded from an inguinal lymph node of a melanoma patient as described in Dudley et al, 2010 (Clin Cancer Res 16:6122-31). M615, TIL615 and other patient-derived TIL cells were obtained analogously as described in Dudley et al, 2010. M579-A2-luc cells and M615-luc cells were produced from M579-A2 and M615, respectively (Machlenkin et al, 2008; Cancer Res 68:2006-13).

M579-A2 cells = assay: Chromium release assay, lysis of M579-A2 by TIL209; details: TIL209, 12.5 E:T ratio, 4 h co-culture
Experimental: TIL-mediated lysis of M579-A2 was validated in chromium release assay (4 h co-culture). […] Indeed, this effect of OR10H1 knock-down was stronger than the PD-L1 positive control knock-down (41% specific lysis at 12.5 E:T ratio; FIG. 1C).
as §1

[3] = system: SW480 colorectal cancer cells; assay: Chromium release assay, lysis of SW480 by HLA-matched TILs; details: SW480, 50:1 E:T ratio, 4 h co-culture
Experimental: (§2) Furthermore, it was tested whether OR10H1 knock-down also has an effect in other cancers. […] SW480 (ATCC) and PANC-1 cells were analyzed for their expression of OR10H1 (see above) and the knock-down efficacy of the siRNAs were validated. The CRC cell line SW480 and the PANC-1 cell line were each co-cultured with corresponding HLA-matched TILs for chromium release (4 h co-culture). OR10H1 siRNA 1 almost tripled the lysis of SW480 by TILs in all effector to target ratios compared to the negative control siRNA (33% to 12.8% specific lysis at 50:1 E:T ratio; FIG. 1E). Indeed, knock-down of OR10H1 was almost as effective as knock-down of PD-L1 positive control on TIL-mediated lysis (FIG. 1E). Such effect was also surprising to see in pancreatic cancer cells: knock-down of OR10H1 (siRNA 1) doubled the lysis of PANC-1 by TILs in all effector to target ratios compared to the negative control siRNA (53% to 26% specific lysis at 50:1 E:T ratio; FIG. 1F).
(§3) The effects of siRNA knock-down on TIL-mediated killing and lysis in a chromium release assay were investigated as described in Khandelwal et al, 2015 (EMBO Mol Med 7:450-63). Tumor-infiltrating lymphocytes 412 and 209 microcultures were expanded from an inguinal lymph node of a melanoma patient as described in Dudley et al, 2010 (Clin Cancer Res 16:6122-31). […]

TIL412 = assay: Luminex cytokine secretion of TIL412 after co-culture with M579-A2; details: 20 h co-culture
[4] = system: PANC-1 pancreatic adenocarcinoma cells; assay: Chromium release assay, lysis of PANC-1 by HLA-matched TILs; details: PANC-1, 50:1 E:T ratio, 4 h co-culture
Experimental: as §2, §3

OR10H1 = assay: Stable lentiviral shRNA knock-down of OR10H1 in M579-A2

OR10H1 siRNA 4: siRNA against OR10H1, GGUCGUGCACUAUGGCUUU, GE Dharmacon D-020479-04, SEQ ID No. 27 (listed as RNA, chemistry not given here; listed as Homo sapiens)
knock-down of OR10H1 mRNA (RT-PCR) (OR10H1 mRNA): weaker but clear reduction

cholera toxin
TIL-mediated lysis (M579-A2-luc cells [1]): around 30% | effect on OR10H1 knockdown-mediated increase in TIL-mediated tumor lysis (M579-A2-luc cells [1]): abrogated | effect on TIL-mediated tumor lysis in OR10H1 siRNA transfected (OR10H1-negative) M579-A2-luc (M579-A2-luc cells [1]): dramatically decreases | effect on TIL-mediated tumor lysis in control siRNA transfected M579-A2-luc (M579-A2-luc cells [1]): slight decrease

OR10H1 siRNA 2: siRNA against OR10H1, AGUAAACUCUACCCAGAAA, GE Dharmacon D-020479-02, SEQ ID No. 25 (listed as RNA, chemistry not given here; listed as Homo sapiens)
knock-down of OR10H1 mRNA (RT-PCR) (OR10H1 mRNA): weaker but clear reduction

OR10H1 siRNA 3: siRNA against OR10H1, GCAGAGAGCCAAUCACUCC, GE Dharmacon D-020479-03, SEQ ID No. 26 (listed as RNA, chemistry not given here; listed as Homo sapiens)
effect on M579-A2-luc viability (M579-A2-luc cells [2]; without the presence of TILs): shows an effect | knock-down of OR10H1 mRNA (RT-PCR) (OR10H1 mRNA): strong reduction

pertussis toxin
effect on TIL-mediated tumor lysis in OR10H1 siRNA transfected (OR10H1-negative) M579-A2-luc (M579-A2-luc cells [1]): not observed | effect on TIL-mediated tumor lysis in control siRNA transfected M579-A2-luc (M579-A2-luc cells [1]): slightly decreased

OR10H1 siRNA 1: siRNA against OR10H1, GGAGACACCUUGAUGGGCA, GE Dharmacon D-020479-01, SEQ ID No. 24 (listed as RNA, chemistry not given here; listed as Homo sapiens)
specific lysis (M579-A2 cells): 57% | TIL-mediated killing (M579-A2-luc cells [2]; TIL412, 5:1 E:T ratio): 70% | remaining melanoma cells compared to scrambled negative control siRNA (M579-A2-luc cells [2]; TIL412, 5:1 E:T ratio): 30% | specific lysis [3]: 33% | decrease of IL-6 secretion (TIL412): 37% | decrease of MCP-1 secretion (TIL412): 39% | increase of IFN-gamma secretion compared to negative control (TIL412): 8% | increase of IL-2 secretion (TIL412): 58% | IFN-gamma secretion (TIL412; supernatant): 3037 pg/mL | IL-2 secretion (TIL412; supernatant): 1701 pg/mL | IL-4 secretion (TIL412; supernatant): 11.8 pg/mL | IL-6 secretion (TIL412; supernatant): 31 pg/mL | MCP-1 secretion (TIL412; supernatant): 4035 pg/mL | decrease of IL-4 secretion (TIL412; trend): 20% | knock-down of OR10H1 mRNA (RT-PCR) (OR10H1 mRNA): complete absence | specific lysis [4]: 53%

OR10H1 shRNA 4: shRNA against OR10H1, TCTGCTGAAGGTCGGAACAAG, Sigma Aldrich TRCN0000357708, SEQ ID No. 31 (the letters are possibly those of the target site; listed as Homo sapiens)
impact on OR10H1 expression and functionality (OR10H1): strongest impact
